Experimental data from patent US20230167058A1, “GPX4 COMPOUNDS AND COMPOSITIONS AND METHODS OF TREATMENT USING SAME” (THE TRUSTEES OF COLUMBIA UNIVERSITY IN THE CITY OF NEW YORK, priority 2020, published 2023).
Where two headings read alike, the source gives them in different places.

Key:
GPX4^U46C [1] = biological target: T1, GPX4^U46C (Homo sapiens, UniProt P36969, U73C); assay: Co-crystal structure of GPX4^U46C with inhibitor; format: binding
T1 construct: His6 (N, cleaved yes); made in house; host or cells: E. coli BL21-Gold (DE3), M9 minimal medium with 15NH4Cl
T1 sequence (P36969 33-197 U73C): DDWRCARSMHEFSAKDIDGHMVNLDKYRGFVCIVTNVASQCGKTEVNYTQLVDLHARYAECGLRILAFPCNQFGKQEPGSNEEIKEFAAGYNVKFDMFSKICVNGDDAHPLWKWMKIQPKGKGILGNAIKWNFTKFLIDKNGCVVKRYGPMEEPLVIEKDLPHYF
Method: GPX4^U46C was pre-incubated with the covalent inhibitors before crystallization using the following specifically optimized condition.
RSL3 and ML162 condition: 50 μM GPX4^U46C incubated with 150 μM RSL3 or ML162 in the reaction buffer (20 mM Tris pH 9.0, 100 mM NaCl, 3 mM TCEP, 1.5% DMSO) at 15° C. for 1 hour before transferring to 4° C. overnight. CDS9 condition: 25 μM GPX4^U46C incubated with 2 mM CDS9 in the reaction buffer (100 mM Tris pH 9.0, 300 mM NaCl, 1 mM TCEP, 2% DMSO) at 37° C. for 2 hours before transferring to 4° C. overnight. TMT10 condition: 25 μM GPX4^U46C incubated with 2 mM TMT10 in the reaction buffer (100 mM Tris pH 9.0, 300 mM NaCl, 2% glycerol, 2% DMSO) at 37° C. for 4 hours before transferring to 4° C. overnight. MAC-5576 condition: 50 μM GPX4^U46C protein was incubated with 500 μM MAC-5576 in the reaction buffer (100 mM Tris pH 9.0, 300 mM NaCl, and 3 mM TCEP, 5% DMSO) at RT for 1 hour before transferring to 4° C. overnight.
After confirmation of covalent binding using intact protein MALDI MS analysis, the protein-inhibitor complex were exchanged into crystallization buffer (10 mM Tris pH 8.0, 5 mM TCEP) and concentrated to 5 mg/ml.

GPX4^U46C [2] = biological target: T1, GPX4^U46C; assay: Intact protein MALDI MS analysis, GPX4^U46C; format: binding; conditions: protein preincubated with excess inhibitor
Method: GPX4^U46C or GPX4^AllCys(−)-A46C protein was pre-incubated with DMSO control or the inhibitor to be tested prior to MALDI MS analysis: 50 μM GPX4 protein was incubated with 500 μM inhibitors in FPLC buffer (100 mM Tris pH 8.0, 300 mM NaCl, and 3 mM TCEP) with 5% DMSO at RT for 1 hour before transferring to 4° C. overnight.
1 μl of the ligand-free protein (pre-incubated with DMSO) or protein-inhibitor complex (pre-incubated with the inhibitor to be tested) was mixed with 9 μl of 10 mg/ml sinapinic acid in the matrix solution (70:30 water/acetonitrile, with 0.1% TFA). 1.0 μl of the final mix was deposited onto the target carrier and allowed to air dry. MALDI spectrum was recorded using Bruker ultrafleXtreme MALDI-TOF instrument. The range of m/z detection and suppression was adjusted to accommodate the molecular weight of target protein. 2000 Hz and 50% intensity was applied for the laser setting. For each sample, five cumulative spectra were collected and the sum was recorded for analysis. All MALDI spectra of protein-inhibitor complex were compared with ligand-free protein to determine the mass shift. Mass shifts were aligned with the mass of potential staying group of each inhibitor to conclude covalent binding.

GPX4 [3] = biological target: T2, GPX4 (Homo sapiens, UniProt P36969, U73C); assay: Microscale thermophoresis (MST) binding to GPX4
T2 sequence (P36969 33-197 U73C): T1 sequence (P36969 33-197 U73C)
Source text: (§1) Therefore, we applied a strategy of computer-facilitated design, based on MD simulation (Desmond) and Glide docking (Schrödinger Suite), and experimental high-throughput screening of a lead-optimized compound library of 10,000 compounds (FIGS. 6A-6E). All candidates were first evaluated by thermal denaturation assay and microscale thermophoresis (MST) to validate binding to GPX4 (Table 1). Surface plasmon resonance (SPR) and isothermal titration calorimetry (ITC) were then applied to precisely measure their binding kinetics and affinities, while ^1H-^15N heteronuclear single-quantum coherence (HSQC) NMR spectroscopy informed us of binding sites. We optimized two GPX4-specific activity assays to examine enzymatic inhibitory effects of hit compounds—LC-MS-based substrate/product monitoring and an NADPH-coupled assay. […] Some L880 analogues were also synthesized and tested (Table 2).

GPX4^U46C [4] = biological target: T1, GPX4^U46C; assay: Thermal shift assay (screen of LOC library); format: binding; conditions: Table 1
Method: To fully utilize the versatility shown by the […] site to accommodate structurally diverse compounds, we applied thermal shift assay to screen 9,719 compounds in the Lead-Optimized-Compound (LOC) library for in vitro binders of GPX4^U46C, which would shift the melting temperature of GPX4^U46C (|ΔTm|>2° C., FIG. 12D) (Kaplan et al. 2015).
Since the binding of small molecules may alter the thermostability of protein, we applied thermal shift assay to screen the LOC library, which determined binding of ligand from the change of the unfolding transition temperature (ΔTm) obtained in the presence of ligands relative to that obtained in the absence of ligands (Kaplan et al. 2015; Lo et al. 2004). For higher throughput purpose, we adapted the assay on 384-well PCR plate. With the assistance of Biomek Automated Liquid Handler (Beckman), 2 μl 10 mM stock solution (in 100% DMSO) of the each compound was transferred from 384-well library plates to 38 μl FPLC buffer (100 mM Tris pH 8.0, 300 mM NaCl, 3 mM TCEP) and mixed in each well of a 384-well mother plate. The compound solution was then dispensed, 12 μl per well, into three 384-well PCR plates. GPX4^U46C protein and Sypro orange were manually added to the plate, with the final concentrations of 5 μM and 5×, respectively, to make a volume of 20 μl per well right before thermal shift analysis of the specific plate. The thermal shift assay was performed on the ViiA 7 Real-Time PCR system (Thermo Fisher) with the thermal protocol: 25° for 15 s, Increase temp to 99° at a rate of 0.05°/sec, 99° for 15 sec. The fluorescence was recorded and analyzed by Protein Thermal Shift™ software. The mean |ΔTm| value for the biological triplicates were calculated and used for hit identification.

GPX4^U46C [5] = biological target: T1, GPX4^U46C; assay: 1H,15N-HSQC-NMR of 15N-labeled GPX4^U46C; format: binding; conditions: Table 1
Method: Uniformly ^15N-labeled GPX4^U46C protein with N-terminal His6 tag was prepared. The GPX4^U46C construct was expressed in E. coli BL21-Gold (DE3) cells (Stratagene) growing at 37° C. in M9 minimal medium supplemented with […] ampicillin, 2 mM MgSO4, […] CaCl2, 1× trace metals, 1×RPMI 1640 vitamin stock (Sigma-Aldrich, #R7256), […] biotin, […] thiamine hydrochloride, 4 g/L glucose, and 3 g/L ^15NH4Cl as the sole nitrogen source. The following induction, lysis, and protein purification was the same as for the non-isotope-labeled His-tagged GPX4^U46C described above, except the N-terminal His6 tag was removed by adding 5 U/mg thrombin before FPLC purification. The thrombin reaction was after a buffer exchange to remove imidazole, which otherwise would inhibit thrombin, and was allowed to proceed overnight at 4° C.
Then the protein solution was concentrated to 50 μM before testing. For HSQC of GPX4 with other inhibitors, 50 μM ^15N-labeled GPX4 was preincubated with 800 μM inhibitor to be tested for […] at room temperature in buffer (100 mM MES, 5 mM TCEP, pH 6.5). D20 (10%) was then added for the field frequency lock. The ^1H-^15N HSQC spectra were collected on Bruker Avance III 500 Ascend (500 MHz) spectrometers (Columbia University) at 298K. The ^1H carrier frequency was positioned at the water resonance. The ^15N carrier frequency was positioned at 115 ppm. The spectral width in the ^1H dimension was 7,500 Hz and the width in the ^15N dimension was 1,824.6 Hz. Suppression of water signal was accomplished using the WATERGATE sequence. Heteronuclear decoupling was accomplished using GARP decoupling scheme.

GPX4 [6] = biological target: T3, GPX4 (Homo sapiens, UniProt P36969); assay: GPX4-specific enzymatic activity assay (LC-MS substrate/product, NADPH-coupled); format: biochemical
T3 sequence (P36969 1-170 isoform P36969-2): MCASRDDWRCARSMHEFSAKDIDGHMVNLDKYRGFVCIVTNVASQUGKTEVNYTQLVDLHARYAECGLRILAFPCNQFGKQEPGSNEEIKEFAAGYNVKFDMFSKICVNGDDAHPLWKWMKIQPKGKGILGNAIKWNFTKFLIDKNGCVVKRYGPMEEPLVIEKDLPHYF
Source text: as §1, with “These x-ray structures enabled further optimization of current inhibitors and the design of novel inhibitors targeting various binding sites on GPX4. Therefore,” for “Therefore,”

GPX4 [7] = biological target: T2, GPX4; assay: Surface plasmon resonance (SPR); format: binding; conditions: Table 1
Source text: as §1, with “These x-ray structures enabled further optimization of current inhibitors and the design of novel inhibitors targeting various binding sites on GPX4. Therefore,” for “Therefore,”

[8] = system: GPX4 protein level in HT-1080 cells; assay: Western blot GPX4 degradation study in HT-1080; format: cell-based, human; conditions: 1 μM RSL3, 1 μM ML162, 10 μM FIN56, 10 h, with 100 μM α-tocopherol
Method: For the GPX4 degradation study, HT-1080 cells were seeded at 800,000 per well in a 60-mm plate and allowed to adhere overnight. Cells were then treated with 100 μM α-tocopherol and either 1 μM RSL3, 1 μM ML162, 10 μM IKE, 10 μM FIN56, or vehicle for 10 h. Cells were harvested with trypsin (Invitrogen, 25200-114), pelleted, and lysed with RIPA buffer.
For both experiments, cell lysates were blotted and imaged as previously described (Yang et al. 2014). Antibodies used were GPX4 (Abcam, ab125066, 1:250 dilution), actin (Cell Signaling, D18C11, 1:3,000 dilution), and GAPDH (Santa Cruz, sc-47724, 1:10,000 dilution). Results were quantified using a LI-COR Odyssey CLx IR scanner and GraphPad Prism 7.

SMILES | binding site in co-crystal structure (GPX4^U46C [1]) | covalent binding to GPX4^U46C by intact protein MALDI MS (GPX4^U46C [2]) | MST (GPX4 [3]; Table 1) | Thermal shift (GPX4^U46C [4]) | Binding site (GPX4^U46C [5]) | HSQC assay (GPX4^U46C [5]) | GPX4 enzymatic assay (GPX4 [6]) | SPR (GPX4 [7]) | Kd (GPX4 [3]; Table 1, read-out: MST Kd) | Kd (GPX4 [3]) | degradation of endogenous GPX4 [8]
CC(C)(C(=O)[O][Sn]([CH3])([CH3])[CH3])N1C(=O)c2ccccc2C1=O [LOC880] | – | – | positive | positive | Allosteric Site 2 | positive | positive | positive | – | 6.7 µM | –
O=S(=O)(NC1CCCCC1)c1ccc2c(c1)C(=NO)c1cc(S(=O)(=O)NC3CCCCC3)ccc1-2 [FIN56] | – | – | – | – | – | – | – | – | – | – | significantly promoted degradation of GPX4

The next lines start with results.

binding site in co-crystal structure (GPX4^U46C [1]) | covalent binding to GPX4^U46C by intact protein MALDI MS (GPX4^U46C [2]) | MST (GPX4 [3]; Table 1) | Thermal shift (GPX4^U46C [4]) | Binding site (GPX4^U46C [5]) | HSQC assay (GPX4^U46C [5]) | GPX4 enzymatic assay (GPX4 [6]) | SPR (GPX4 [7]) | Kd (GPX4 [3]; Table 1, read-out: MST Kd) | SMILES | Kd (GPX4 [3]) | degradation of endogenous GPX4 [8]
bound to the cys66 allosteric site | able to covalently modify GPX4 | – | – | – | – | – | – | – | O=C(Oc1cncc(Cl)c1)c1cccs1 [MAC-5576] | – | –
– | – | positive | positive | Allosteric Site 2 | positive | positive | positive | 6.8 µM | CN(C)c1ccc(/C=C2\SC(N3CCN(CCO)CC3)=NC2=O)cc1 [LOC957] | – | –
– | – | positive | positive | Allosteric Site 2 | positive | positive | positive | 40 µM | CN(C)C(=O)c1ccc2c(c1)NC(=O)C1CCCN21 (stereo not drawn) [LOC4873] | – | –
